Assay results from PMC9623576, “Semisynthesis and Evaluation of Anti-Inflammatory Activity of the Cassane-Type Diterpenoid Taepeenin F and of Some Synthetic Intermediates” (Journal of Natural Products, 2022).
“Also recorded” adds a separate entry of the source.

System: B16-F10 cells
Assay: Mitochondrial membrane potential, Rh123/PI flow cytometry
Format: cell-based, murine
Conditions: B16-F10, 72 h; for changes in mitochondrial membrane potential (MMP): IC50 and IC80 concentrations, Rh123/IP
From the text: In addition, the loss of part of MMP can be related to the secondary activation of the intrinsic apoptotic pathway as a final event in the extrinsic apoptosis mechanism. Further molecular studies will be necessary to confirm these conclusions.
The electrochemical gradient across the mitochondrial membrane was investigated by analytical flow cytometry, using dihydrorhodamine (DHR). DHR is oxidized in contact with living cells, forming a highly fluorescent product called rhodamine (Rh 123). The emitted fluorescence can be monitored by fluorescence spectroscopy using excitation and emission wavelengths of 500 and 536 nm, respectively.[37]−[39] […] After treatment, the culture medium was renewed by adding fresh medium with DHR to a final concentration of […]. Cells were incubated for 1 h at 37 °C in an atmosphere of 5% CO2 and 95% humidity and subsequently washed and resuspended in PBS with 5 μg/mL of PI. The fluorescence intensity was measured using a FACScan flow cytometer (fluorescence-activated cell sorter). The experiments were performed three times with two replicates per assay.

SMILES	changes in mitochondrial membrane potential (MMP)	population of Rh123 negative cells versus control untreated cells (IC80 concentration)
COC(=O)[C@]1(C)CCC[C@@]2(C)[C@H]1CC=C1C(C)=C(C(C)C)C(=O)C[C@@H]12 [Compound 16, (1R,4aR,10aR)-Methyl 7-isopropyl-1,4a,8-trimethyl-6-oxo-1,2,3,4,4a,4b,5,6,10,10a-decahydrophenanthrene-1-carboxylate]	did not cause any loss of the mitochondrial membrane potential; also recorded: did not produce any changes in MMP	
COC(=O)[C@]1(C)CCC[C@]2(C)c3cc(O)c(C=O)c(C)c3CC[C@@H]12 [Compound 21, (1R,4aS,10aR)-Methyl 7-formyl-6-hydroxy-1,4a,8-trimethyl-1,2,3,4,4a,9,10,10a-octahydrophenanthrene-1-carboxylate]	partial loss of the MMP	higher
